Experiment: xn = mol fraction of the nth substance listed
Conditions: Gas, Buoyancy - hydrostatic balance with magnetic suspension - one sinker

[HH] [hydrogen] + C
Conditions	mass density [kg/m3]
275.01 K, 5005 kPa, x2 = 0.9	35.103
275.01 K, 6005 kPa, x2 = 0.9	42.849
275.01 K, 6005 kPa, x2 = 0.9499	45.691
275.01 K, 7005 kPa, x2 = 0.9	50.825
275.01 K, 7005 kPa, x2 = 0.9499	54.384
275.01 K, 8002 kPa, x2 = 0.9	58.973
275.01 K, 8003 kPa, x2 = 0.9499	63.333
275.01 K, 9002 kPa, x2 = 0.9	67.322
275.01 K, 9003 kPa, x2 = 0.9499	72.54
275.01 K, 10005 kPa, x2 = 0.9	75.811
275.01 K, 10006 kPa, x2 = 0.9499	81.955
275.01 K, 11001 kPa, x2 = 0.4997	43.883
275.01 K, 11005 kPa, x2 = 0.9499	91.455
275.01 K, 11006 kPa, x2 = 0.9	84.369
275.01 K, 12007 kPa, x2 = 0.9	92.928
275.01 K, 12009 kPa, x2 = 0.9499	101.013
275.01 K, 13009 kPa, x2 = 0.9	101.458
275.01 K, 13011 kPa, x2 = 0.9499	110.507
275.01 K, 14003 kPa, x2 = 0.4997	55.493
275.01 K, 14006 kPa, x2 = 0.9	109.837
275.01 K, 14006 kPa, x2 = 0.9499	119.787
275.01 K, 15000 kPa, x2 = 0.4997	59.259
275.01 K, 15008 kPa, x2 = 0.9	118.086
275.01 K, 15018 kPa, x2 = 0.9499	128.986
275.01 K, 16003 kPa, x2 = 0.9	126.067
275.01 K, 16005 kPa, x2 = 0.4997	63.009
275.01 K, 16016 kPa, x2 = 0.9499	137.753
275.01 K, 17006 kPa, x2 = 0.4997	66.693
275.01 K, 17009 kPa, x2 = 0.9	133.878
275.01 K, 17010 kPa, x2 = 0.9499	146.15
275.01 K, 18001 kPa, x2 = 0.4997	70.294
275.01 K, 18006 kPa, x2 = 0.9	141.344
275.01 K, 19020 kPa, x2 = 0.9499	161.966
275.01 K, 19297 kPa, x2 = 0.4997	74.901
275.01 K, 19909 kPa, x2 = 0.9499	168.44
275.02 K, 18019 kPa, x2 = 0.9499	154.292
275.02 K, 19012 kPa, x2 = 0.9	148.567
275.02 K, 19897 kPa, x2 = 0.9	154.661
299.95 K, 3999 kPa, x2 = 0.9	24.698
299.95 K, 16003 kPa, x2 = 0.9	107.531
299.96 K, 999 kPa, x2 = 0.9	5.941
299.96 K, 999 kPa, x2 = 0.9499	6.241
299.96 K, 1999 kPa, x2 = 0.9	12.047
299.96 K, 2000 kPa, x2 = 0.9499	12.675
299.96 K, 2983 kPa, x2 = 0.9499	19.18
299.96 K, 2990 kPa, x2 = 0.9	18.241
299.96 K, 3999 kPa, x2 = 0.9499	26.096
299.96 K, 4999 kPa, x2 = 0.9	31.243
299.96 K, 4999 kPa, x2 = 0.9499	33.078
299.96 K, 5999 kPa, x2 = 0.9	37.914
299.96 K, 6000 kPa, x2 = 0.9499	40.236
299.96 K, 6999 kPa, x2 = 0.9	44.708
299.96 K, 7000 kPa, x2 = 0.9499	47.554
299.96 K, 8001 kPa, x2 = 0.9	51.609
299.96 K, 8001 kPa, x2 = 0.9499	55.012
299.96 K, 9002 kPa, x2 = 0.9	58.59
299.96 K, 9003 kPa, x2 = 0.9499	62.59
299.96 K, 10003 kPa, x2 = 0.9	65.636
299.96 K, 10004 kPa, x2 = 0.9499	70.258
299.96 K, 11001 kPa, x2 = 0.9499	77.955
299.96 K, 11003 kPa, x2 = 0.9	72.706
299.96 K, 12002 kPa, x2 = 0.9	79.763
299.96 K, 12003 kPa, x2 = 0.9499	85.693
299.96 K, 13002 kPa, x2 = 0.9	86.81
299.96 K, 13003 kPa, x2 = 0.9499	93.405
299.96 K, 14003 kPa, x2 = 0.9	93.813
299.96 K, 14006 kPa, x2 = 0.9499	101.077
299.96 K, 15004 kPa, x2 = 0.9499	108.622
299.96 K, 15005 kPa, x2 = 0.9	100.739
299.96 K, 16005 kPa, x2 = 0.9499	116.045
299.96 K, 17007 kPa, x2 = 0.9	114.233
299.96 K, 17007 kPa, x2 = 0.9499	123.312
299.96 K, 18003 kPa, x2 = 0.9	120.727
299.96 K, 18007 kPa, x2 = 0.9499	130.371
299.96 K, 18999 kPa, x2 = 0.9499	137.175
299.96 K, 19011 kPa, x2 = 0.9	127.134
299.96 K, 19426 kPa, x2 = 0.9499	140.03
299.96 K, 19795 kPa, x2 = 0.9	131.987
324.96 K, 999 kPa, x2 = 0.9	5.467
324.96 K, 1002 kPa, x2 = 0.4997	3.349
324.96 K, 1999 kPa, x2 = 0.9	11.036
324.96 K, 2003 kPa, x2 = 0.4997	6.689
324.96 K, 2987 kPa, x2 = 0.4997	9.973
324.96 K, 2999 kPa, x2 = 0.9	16.7
324.96 K, 4000 kPa, x2 = 0.9	22.453
324.96 K, 4001 kPa, x2 = 0.4997	13.346
324.96 K, 4999 kPa, x2 = 0.9	28.286
324.96 K, 5001 kPa, x2 = 0.4997	16.663
324.96 K, 6000 kPa, x2 = 0.9	34.198
324.96 K, 6001 kPa, x2 = 0.4997	19.966
324.96 K, 6999 kPa, x2 = 0.9	40.162
324.96 K, 7000 kPa, x2 = 0.4997	23.25
324.96 K, 8002 kPa, x2 = 0.4997	26.528
324.96 K, 8004 kPa, x2 = 0.9	46.209
324.96 K, 8999 kPa, x2 = 0.4997	29.768
324.96 K, 9000 kPa, x2 = 0.9	52.245
324.96 K, 9001 kPa, x2 = 0.9499	55.531
324.96 K, 9926 kPa, x2 = 0.4997	32.763
